According to ChEMBL document CHEMBL2417537, “Synthesis and antifungal activity of terpenyl-1,4-naphthoquinone and 1,4-anthracenedione derivatives” (Eur J Med Chem, 2013):
Values after ≈ are worked out from the molar mass of the structure shown. Active and inactive are the calls of the source. The calls are words filed in the database; no cut-off is given here.

Experiments:
Aspergillus terreus = test: Antifungal activity against Aspergillus terreus CDC 317 after 48 hrs; assay type: functional; settings: CDC 317, 48 h
Vero = test: Cytotoxicity against african green monkey Vero cells after 48 hrs by MTT assay; assay type: cell-based; settings: Chlorocebus sabaeus
Trichophyton rubrum = test: Antifungal activity against Trichophyton rubrum ATCC 28188 after 6 days; assay type: functional; settings: ATCC 28188, 144 h
[1] = tested on: Trichophyton mentagrophytes; test: Antifungal activity against Trichophyton mentagrophytes ATCC 24198 after 6 days; assay type: functional; settings: ATCC 24198, 144 h
Fusarium oxysporum = test: Antifungal activity against Fusarium oxysporum ATCC 48112 after 48 hrs; assay type: functional; settings: ATCC 48112, 48 h
Aspergillus niger = test: Antifungal activity against Aspergillus niger ATCC 16404 after 48 hrs; assay type: functional; settings: ATCC 16404, 48 h
Aspergillus flavus = test: Antifungal activity against Aspergillus flavus ATCC 204304 after 48 hrs; assay type: functional; settings: ATCC 204304, 48 h
Aspergillus fumigatus = test: Antifungal activity against Aspergillus fumigatus ATCC 204305 after 48 hrs; assay type: functional; settings: ATCC 204305, 48 h
Candida albicans [2] = test: Antifungal activity against Candida albicans ATCC 90028 after 24 hrs; assay type: functional; settings: ATCC 90028, 24 h
Candida albicans [3] = test: Antifungal activity against Candida albicans ATCC 10231 after 24 hrs; assay type: functional; settings: ATCC 10231, 24 h
Pichia kudriavzevii = test: Antifungal activity against Candida krusei ATCC 6258 after 24 hrs; assay type: functional; settings: ATCC 6258, 24 h
Clavispora lusitaniae = test: Antifungal activity against Candida lusitaniae ATCC 200951 after 24 hrs; assay type: functional; settings: ATCC 200951, 24 h
Candida tropicalis [4] = test: Antifungal activity against Candida tropicalis ATCC 200956 after 24 hrs; assay type: functional; settings: ATCC 200956, 24 h
Candida parapsilosis [5] = test: Antifungal activity against Candida parapsilosis ATCC 22019 after 24 hrs; assay type: functional; settings: ATCC 22019, 24 h
Candida tropicalis [6] = test: Antifungal activity against Candida tropicalis CECT 11901 after 24 hrs; settings: CECT 11901, 24 h
[7] = Selectivity index, ratio of IC50 for african green monkey Vero cells to IC50 for Trichophyton mentagrophytes ATCC 24198; assay type: toxicity, cell-based; settings: read-out: Ratio IC50
[8] = Selectivity index, ratio of IC50 for african green monkey Vero cells to IC50 for Candida lusitaniae ATCC 200951; assay type: toxicity, cell-based; settings: read-out: Ratio IC50
[9] = Selectivity index, ratio of IC50 for african green monkey Vero cells to IC50 for Aspergillus fumigatus ATCC 204305; assay type: toxicity, cell-based; settings: read-out: Ratio IC50
[10] = Selectivity index, ratio of IC50 for african green monkey Vero cells to IC50 for Trichophyton rubrum ATCC 28188; assay type: toxicity, cell-based; settings: read-out: Ratio IC50
[11] = Selectivity index, ratio of IC50 for african green monkey Vero cells to IC50 for Candida krusei ATCC 6258; assay type: toxicity, cell-based; settings: read-out: Ratio IC50
Candida parapsilosis [12] = test: Antifungal activity against Candida parapsilosis ATCC 22019 at 0.5 MIC up to 24 hrs by time kill study; assay type: functional, organism-based
Candida parapsilosis [13] = test: Antifungal activity against Candida parapsilosis ATCC 22019 at > MIC up to 24 hrs by time kill study; assay type: functional, organism-based

MIC90 (Aspergillus terreus)	MIC90 (Trichophyton rubrum)	MIC90 [1]	MIC90 (Fusarium oxysporum)	MIC90 (Aspergillus niger)	MIC90 (Aspergillus flavus)	MIC90 (Aspergillus fumigatus)	MIC90 (Candida albicans [2])	MIC90 (Candida albicans [3])	MIC90 (Pichia kudriavzevii)	MIC90 (Clavispora lusitaniae)	MIC90 (Candida tropicalis [4])	MIC90 (Candida parapsilosis [5])	MIC90 (Candida tropicalis [6])	Compound	IC50 (Vero)	also measured
> 32 µg/mL	22.6 µg/mL (≈ 59.5 µM)	> 32 µg/mL	> 32 µg/mL	> 32 µg/mL	> 32 µg/mL	> 32 µg/mL	> 32 µg/mL	> 32 µg/mL	> 32 µg/mL	> 32 µg/mL	> 32 µg/mL	> 32 µg/mL	> 32 µg/mL	CC(C)=CCCc1ccc2c(c1)C(=O)C(Cl)=C(NCc1ccccc1)C2=O	55.9 µg/mL (≈ 147 µM)	–
> 32 µg/mL	12.7 µg/mL (≈ 31.9 µM)	5 µg/mL (≈ 12.6 µM)	> 32 µg/mL	> 32 µg/mL	> 32 µg/mL	> 32 µg/mL	> 32 µg/mL	> 32 µg/mL	> 32 µg/mL	16 µg/mL (≈ 40.2 µM)	32 µg/mL (≈ 80.4 µM)	> 32 µg/mL	> 32 µg/mL	COc1ccc(NC2=C(Cl)C(=O)c3cc(CCCC(C)C)ccc3C2=O)cc1	35.6 µg/mL (≈ 89.5 µM)	selectivity ratio [7]: 7.1; selectivity ratio [8]: 2.2
> 32 µg/mL	5 µg/mL (≈ 15.1 µM)	3.2 µg/mL (≈ 9.64 µM)	32 µg/mL (≈ 96.4 µM)	> 32 µg/mL	> 32 µg/mL	22.6 µg/mL (≈ 68.1 µM)	8 µg/mL (≈ 24.1 µM)	4 µg/mL (≈ 12.1 µM)	2.8 µg/mL (≈ 8.44 µM)	2.2 µg/mL (≈ 6.63 µM)	4 µg/mL (≈ 12.1 µM)	8 µg/mL (≈ 24.1 µM)	6.4 µg/mL (≈ 19.3 µM)	CC(=O)NC1=C(Cl)C(=O)c2cc3c(cc2C1=O)CCCC3(C)C	22.3 µg/mL (≈ 67.2 µM)	selectivity ratio [7]: 7.1; selectivity ratio [9]: 0.9; selectivity ratio [8]: 10.1
> 32 µg/mL	> 32 µg/mL	> 32 µg/mL	> 32 µg/mL	> 32 µg/mL	> 32 µg/mL	> 32 µg/mL	> 32 µg/mL	> 32 µg/mL	> 32 µg/mL	> 32 µg/mL	> 32 µg/mL	> 32 µg/mL	> 32 µg/mL	Cc1c2c(nc3ccccc13)C(=O)c1cc(CCCC(C)C)ccc1C2=O	115 µg/mL (≈ 322 µM)	–
–	0.08 µg/mL (≈ 0.275 µM)	0.03 µg/mL (≈ 0.103 µM)	–	–	–	–	–	–	–	–	–	–	–	CN(C/C=C/C#CC(C)(C)C)Cc1cccc2ccccc12 [TERBINAFINE]	30.9 µg/mL (≈ 106 µM)	selectivity ratio [10]: 386
> 32 µg/mL	> 32 µg/mL	> 32 µg/mL	> 32 µg/mL	> 32 µg/mL	> 32 µg/mL	> 32 µg/mL	> 32 µg/mL	> 32 µg/mL	> 32 µg/mL	> 32 µg/mL	> 32 µg/mL	> 32 µg/mL	> 32 µg/mL	COc1ccc(SC2=CC(=O)c3ccc(CCCC(C)C)cc3C2=O)cc1	–	–
> 32 µg/mL	> 32 µg/mL	> 32 µg/mL	> 32 µg/mL	> 32 µg/mL	> 32 µg/mL	> 32 µg/mL	> 32 µg/mL	> 32 µg/mL	> 32 µg/mL	> 32 µg/mL	> 32 µg/mL	> 32 µg/mL	> 32 µg/mL	COc1cc(NC2=C(Cl)C(=O)c3cc4c(cc3C2=O)C(C)(C)CCC4)cc(OC)c1OC	≤ 25 µg/mL	–
> 32 µg/mL	4 µg/mL (≈ 16.6 µM)	1.3 µg/mL (≈ 5.41 µM)	> 32 µg/mL	> 32 µg/mL	> 32 µg/mL	> 32 µg/mL	22.6 µg/mL (≈ 94 µM)	18 µg/mL (≈ 74.9 µM)	4 µg/mL (≈ 16.6 µM)	5 µg/mL (≈ 20.8 µM)	5 µg/mL (≈ 20.8 µM)	4.8 µg/mL (≈ 20 µM)	12.7 µg/mL (≈ 52.9 µM)	CC1(C)CCCc2cc3c(cc21)C(=O)C=CC3=O	8.6 µg/mL (≈ 35.8 µM)	selectivity ratio [7]: 6.6; selectivity ratio [11]: 2.2
> 32 µg/mL	> 32 µg/mL	> 32 µg/mL	> 32 µg/mL	> 32 µg/mL	> 32 µg/mL	> 32 µg/mL	> 32 µg/mL	> 32 µg/mL	> 32 µg/mL	> 32 µg/mL	> 32 µg/mL	> 32 µg/mL	> 32 µg/mL	CC(C)=CCCc1ccc2c(c1)C(=O)C=CC2=O	109 µg/mL (≈ 454 µM)	–
> 32 µg/mL	32 µg/mL (≈ 80 µM)	> 32 µg/mL	> 32 µg/mL	> 32 µg/mL	32 µg/mL (≈ 80 µM)	> 32 µg/mL	> 32 µg/mL	> 32 µg/mL	> 32 µg/mL	> 32 µg/mL	> 32 µg/mL	> 32 µg/mL	> 32 µg/mL	CC(C)CCCc1ccc2c(c1)C(=O)C(Br)=C(Br)C2=O	≤ 25 µg/mL	–
> 32 µg/mL	4 µg/mL (≈ 14.6 µM)	6.4 µg/mL (≈ 23.3 µM)	32 µg/mL (≈ 116 µM)	> 32 µg/mL	> 32 µg/mL	11.3 µg/mL (≈ 41.1 µM)	> 32 µg/mL	> 32 µg/mL	2.4 µg/mL (≈ 8.74 µM)	3.2 µg/mL (≈ 11.6 µM)	11.3 µg/mL (≈ 41.1 µM)	4 µg/mL (≈ 14.6 µM)	> 32 µg/mL	CC(C)=CCCc1ccc2c(c1)C(=O)C(Cl)=CC2=O	26.1 µg/mL (≈ 95 µM)	selectivity ratio [10]: 6.5; selectivity ratio [9]: 1.4; selectivity ratio [11]: 10.9
> 32 µg/mL	3.2 µg/mL (≈ 11.3 µM)	5 µg/mL (≈ 17.6 µM)	> 32 µg/mL	> 32 µg/mL	> 32 µg/mL	> 32 µg/mL	> 32 µg/mL	> 32 µg/mL	> 32 µg/mL	> 32 µg/mL	> 32 µg/mL	> 32 µg/mL	> 32 µg/mL	CCNC1=CC(=O)c2cc3c(cc2C1=O)C(C)(C)CCC3	35.6 µg/mL (≈ 126 µM)	selectivity ratio [10]: 11.1
> 32 µg/mL	5 µg/mL (≈ 18.2 µM)	3.2 µg/mL (≈ 11.6 µM)	16 µg/mL (≈ 58.2 µM)	> 32 µg/mL	> 32 µg/mL	16 µg/mL (≈ 58.2 µM)	16 µg/mL (≈ 58.2 µM)	20.2 µg/mL (≈ 73.5 µM)	2 µg/mL (≈ 7.28 µM)	5 µg/mL (≈ 18.2 µM)	8 µg/mL (≈ 29.1 µM)	4 µg/mL (≈ 14.6 µM)	12.7 µg/mL (≈ 46.2 µM)	CC1(C)CCCc2cc3c(cc21)C(=O)C=C(Cl)C3=O	109 µg/mL (≈ 397 µM)	Activity (Candida parapsilosis [12]): inactive; Activity (Candida parapsilosis [13]): Active; selectivity ratio [7]: > 7.8; selectivity ratio [9]: > 1.6; selectivity ratio [11]: > 12.5
> 32 µg/mL	> 32 µg/mL	> 32 µg/mL	> 32 µg/mL	> 32 µg/mL	> 32 µg/mL	> 32 µg/mL	> 32 µg/mL	> 32 µg/mL	> 32 µg/mL	> 32 µg/mL	> 32 µg/mL	> 32 µg/mL	> 32 µg/mL	CCOC1=C(OCC)C(=O)c2cc3c(cc2C1=O)CCCC3(C)C	≤ 25 µg/mL	–
> 32 µg/mL	> 32 µg/mL	> 32 µg/mL	> 32 µg/mL	> 32 µg/mL	> 32 µg/mL	> 32 µg/mL	> 32 µg/mL	> 32 µg/mL	> 32 µg/mL	> 32 µg/mL	> 32 µg/mL	> 32 µg/mL	> 32 µg/mL	Cc1ccc2[nH]c3c(c2c1)C(=O)c1ccc(CCCC(C)C)cc1C3=O	55.2 µg/mL (≈ 160 µM)	–
> 32 µg/mL	> 32 µg/mL	> 32 µg/mL	> 32 µg/mL	> 32 µg/mL	> 32 µg/mL	> 32 µg/mL	> 32 µg/mL	> 32 µg/mL	> 32 µg/mL	> 32 µg/mL	> 32 µg/mL	> 32 µg/mL	> 32 µg/mL	Cc1cc(C)c2c3c(oc2c1)C(=O)c1cc(CCCC(C)C)ccc1C3=O	35.4 µg/mL (≈ 98.2 µM)	–
> 32 µg/mL	4 µg/mL (≈ 12.9 µM)	4 µg/mL (≈ 12.9 µM)	> 32 µg/mL	> 32 µg/mL	> 32 µg/mL	8 µg/mL (≈ 25.7 µM)	> 32 µg/mL	> 32 µg/mL	> 32 µg/mL	20.2 µg/mL (≈ 64.9 µM)	> 32 µg/mL	> 32 µg/mL	> 32 µg/mL	CC(C)CCCc1ccc2c(c1)C(=O)C(Cl)=C(Cl)C2=O	≥ 200 µg/mL	selectivity ratio [7]: > 50; selectivity ratio [10]: > 50; selectivity ratio [9]: > 25; selectivity ratio [8]: > 9.9
–	–	–	–	–	0.1 µg/mL (≈ 0.142 µM)	0.2 µg/mL (≈ 0.283 µM)	–	–	0.5 µg/mL (≈ 0.709 µM)	–	–	0.25 µg/mL (≈ 0.354 µM)	–	CCC(C)n1ncn(-c2ccc(N3CCN(c4ccc(OCC5COC(Cn6cncn6)(c6ccc(Cl)cc6Cl)O5)cc4)CC3)cc2)c1=O (stereo not given) [ITRACONAZOLE]	> 50 µg/mL	Activity (Candida parapsilosis [13]): Active; selectivity ratio [11]: > 100
> 32 µg/mL	> 32 µg/mL	> 32 µg/mL	> 32 µg/mL	> 32 µg/mL	> 32 µg/mL	> 32 µg/mL	> 32 µg/mL	> 32 µg/mL	> 32 µg/mL	> 32 µg/mL	> 32 µg/mL	> 32 µg/mL	> 32 µg/mL	COc1ccc(NC2=C(Br)C(=O)c3cc(CCCC(C)C)ccc3C2=O)cc1	58.5 µg/mL (≈ 132 µM)	–
